Experimental data: ChEMBL document CHEMBL4823249, “Discovery of a Pyrimidinedione Derivative as a Potent and Orally Bioavailable Axl Inhibitor” (J Med Chem, 2021)
The source made the active and inactive calls. The calls are words filed in the database; no cut-off is given here.

How the values were obtained:
[1] = biological target: T1, Tyrosine-protein kinase receptor UFO (Mus musculus) (UniProt Q00993); assay: Inhibition of AXL in mouse BaF3/TEL-AXL cells assessed as reduction in phosphorylation of AKT at 1 to 15 nM after 2 hrs by Western blotting analysis; type: cell-based; conditions: dose 1-15 nM
T1 sequence (whole entry): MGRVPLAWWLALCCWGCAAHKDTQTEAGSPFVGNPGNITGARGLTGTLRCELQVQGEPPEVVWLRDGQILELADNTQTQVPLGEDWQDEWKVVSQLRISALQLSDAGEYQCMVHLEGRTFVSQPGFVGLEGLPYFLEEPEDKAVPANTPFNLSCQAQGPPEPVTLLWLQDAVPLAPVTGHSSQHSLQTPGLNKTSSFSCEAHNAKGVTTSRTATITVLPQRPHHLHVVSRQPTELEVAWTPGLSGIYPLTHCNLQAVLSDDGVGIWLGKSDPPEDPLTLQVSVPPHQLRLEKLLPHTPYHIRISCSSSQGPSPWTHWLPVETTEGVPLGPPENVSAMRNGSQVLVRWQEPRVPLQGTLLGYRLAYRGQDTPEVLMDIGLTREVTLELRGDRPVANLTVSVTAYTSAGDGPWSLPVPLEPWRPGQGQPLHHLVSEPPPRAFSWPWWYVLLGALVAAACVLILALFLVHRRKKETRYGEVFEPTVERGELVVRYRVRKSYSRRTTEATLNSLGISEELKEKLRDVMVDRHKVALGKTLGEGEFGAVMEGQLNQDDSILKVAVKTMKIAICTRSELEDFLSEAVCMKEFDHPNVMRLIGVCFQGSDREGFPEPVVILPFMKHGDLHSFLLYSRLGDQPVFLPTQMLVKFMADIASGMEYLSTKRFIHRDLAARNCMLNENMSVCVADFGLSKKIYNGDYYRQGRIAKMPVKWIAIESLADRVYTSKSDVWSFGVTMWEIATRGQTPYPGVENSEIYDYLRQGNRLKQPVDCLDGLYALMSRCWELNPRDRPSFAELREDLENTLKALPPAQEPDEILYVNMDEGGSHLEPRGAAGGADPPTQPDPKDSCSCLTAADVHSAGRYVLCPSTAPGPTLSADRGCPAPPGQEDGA

[2] = Cmax in ICR mouse at 3 mg/kg, po measured upto 24 hrs by LC-MS analysis; type: ADME, organism-based; design: route oral, dose 3 mg/kg, time <=24; conditions: in vivo
[3] = biological target: Platelet-derived growth factor receptor alpha (Homo sapiens, UniProt P16234); assay: Inhibition of human PDGFRalpha (550 to end residues) using poly(Glu, Tyr) 4:1 as substrate measured after 40 mins in presence of [gamma33P]ATP by scintillation counting based radiometry assay
MM1.S = assay: Antiproliferative activity against human MM1.S cells incubated for 72 hrs by SRB or CCK8 assay; type: functional, cell-based
[4] = biological target: Proto-oncogene tyrosine-protein kinase receptor Ret (Homo sapiens, UniProt P07949); assay: Inhibition of recombinant human Ret (658 to end residues) using KKKSPGEYVNIEFG as substrate incubated for 40 mins in presence of [gamma33P]ATP by scintillation counting based radiometry assay
U-87 MG [5] = assay: Antitumor activity against human U-87MG cells xenografted in po dosed BALB/c nude mouse assessed as tumor growth inhibition administered once daily for 14 days by caliper method; type: functional, organism-based; conditions: U-87MG ATCC, dose 5-100 mg/kg, time 14.0 day
[6] = AUC(0 to t) in Sprague-Dawley rat at 3 mg/kg, po measured upto 24 hrs by LC-MS analysis; type: ADME, organism-based; design: route oral, dose 3 mg/kg, time <=24; conditions: in vivo
[7] = Clearance in ICR mouse at 1 mg/kg, iv measured upto 24 hrs by LC-MS analysis; type: ADME, organism-based; conditions: in vivo
[8] = biological target: Receptor-type tyrosine-protein kinase FLT3 (Homo sapiens, UniProt P36888); assay: Inhibition of recombinant human FLT3 (564 to end residues) using EAIYAAPFAKKK as substrate incubated for 40 mins in presence of [gamma-33ATP] by scintillation counting based radiometry assay
HCC827 = assay: Antiproliferative activity against human HCC827 cells incubated for 72 hrs by SRB or CCK8 assay; type: functional, cell-based; conditions: HCC827, 72 h
[9] = Toxicity in BALB/c nude mouse assessed as reduction in body weight at 100 mg/kg, po administered once daily for 14 days; type: organism-based; conditions: in vivo, 336 h, time 14 day
[10] = Tmax in Sprague-Dawley rat at 3 mg/kg, po measured upto 24 hrs by LC-MS analysis; type: ADME, organism-based; conditions: in vivo
[11] = biological target: Dual specificity protein kinase CLK1 (Homo sapiens, UniProt P49759); assay: Inhibition of human recombinant CLK1 (130 to end residues) using ERMRPRKRQGSVR as substrate incubated for 40 mins in presence of [gamma-33ATP] by radiometric scintillation counting analysis
[12] = biological target: Serine/threonine-protein kinase A-Raf (Homo sapiens, UniProt P10398); assay: Inhibition of recombinant human A-Raf (273 to end residues) using myelin basic protein as substrate incubated for 40 mins in presence of [gamma-33ATP] by scintillation counting based radiometry assay
[13] = biological target: Hepatocyte growth factor receptor (Homo sapiens, UniProt P08581); assay: Inhibition of MET signaling in human MKN45 cells assessed as reduction in phosphorylation of MET after 2 hrs by Western blotting analysis; type: cell-based; conditions: MKN-45, dose 10-100 nM
NCI-H1299 [14] = assay: Inhibition of Gas6-stimulated cell migration in human NCI-H1299 cells at […] after 24 hrs by crystal violet staining based microscopic analysis; type: functional; conditions: dose lower 5.0 µM
[15] = biological target: Serine/threonine-protein kinase mTOR (Homo sapiens, UniProt P42345); assay: Inhibition of full length recombinant human mTOR incubated for 40 mins in presence of [gamma-33ATP] by scintillation counting based radiometry assay
U-87 MG [16] = assay: Antitumor activity against human U-87MG cells xenografted in BALB/c nude mouse assessed as tumor growth inhibition at 100 mg/kg, po administered once daily for 14 days by caliper method; type: functional, U-87MG ATCC; conditions: 336 h, time 14 day, read-out: TGI
MKN-45 = assay: Antiproliferative activity against human MKN-45 cells incubated for 72 hrs by SRB or CCK8 assay; type: functional, cell-based; conditions: MKN-45, 72 h
NCI-H1299 [17] = assay: Antiproliferative activity against human NCI-H1299 cells at 5 to 125 uM incubated for 72 hrs by SRB or CCK8 assay; type: functional, cell-based; conditions: dose 5-125 µM
[18] = Tmax in ICR mouse at 3 mg/kg, po measured upto 24 hrs by LC-MS analysis; type: ADME, organism-based; conditions: in vivo
CDK12/Cyclin K = CDK12/Cyclin K (Homo sapiens, UniProt Q9NYV4); assay: Inhibition of recombinant full length human CDK12/CyclinK using RSRSRSRSRSRSR as substrate incubated for 40 mins in presence of [gamma-33ATP] by scintillation counting based radiometry assay; type: protein-complex assay
[19] = Cmax in Sprague-Dawley rat at 3 mg/kg, po measured upto 24 hrs by LC-MS analysis; type: ADME, organism-based; design: route oral, dose 3 mg/kg, time <=24; conditions: in vivo
SNU-449 = assay: Inhibition of Gas6-stimulated cell invasion in human SNU-449 cells at […] after 24 hrs by crystal violet staining based microscopic analysis; type: functional; conditions: dose lower 5.0 µM

Serine/threonine-protein kinase A-Raf, sequence (P10398 whole entry): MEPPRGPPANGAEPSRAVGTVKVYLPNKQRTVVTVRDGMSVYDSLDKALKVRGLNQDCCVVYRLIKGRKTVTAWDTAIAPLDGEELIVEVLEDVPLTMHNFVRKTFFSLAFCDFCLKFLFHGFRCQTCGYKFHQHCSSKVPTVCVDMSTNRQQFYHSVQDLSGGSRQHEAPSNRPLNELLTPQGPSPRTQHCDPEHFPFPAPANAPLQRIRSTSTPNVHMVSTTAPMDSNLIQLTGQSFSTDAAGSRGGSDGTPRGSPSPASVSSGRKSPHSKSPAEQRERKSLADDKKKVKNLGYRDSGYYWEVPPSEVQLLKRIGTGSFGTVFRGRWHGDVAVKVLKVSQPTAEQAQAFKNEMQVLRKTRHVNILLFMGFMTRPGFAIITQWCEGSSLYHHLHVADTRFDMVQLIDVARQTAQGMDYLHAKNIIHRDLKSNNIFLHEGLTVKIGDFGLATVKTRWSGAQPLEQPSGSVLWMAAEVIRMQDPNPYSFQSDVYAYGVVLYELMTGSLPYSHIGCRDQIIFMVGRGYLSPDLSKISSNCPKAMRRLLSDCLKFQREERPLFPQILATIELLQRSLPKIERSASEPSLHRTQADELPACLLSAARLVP
Receptor-type tyrosine-protein kinase FLT3, sequence (P36888 whole entry): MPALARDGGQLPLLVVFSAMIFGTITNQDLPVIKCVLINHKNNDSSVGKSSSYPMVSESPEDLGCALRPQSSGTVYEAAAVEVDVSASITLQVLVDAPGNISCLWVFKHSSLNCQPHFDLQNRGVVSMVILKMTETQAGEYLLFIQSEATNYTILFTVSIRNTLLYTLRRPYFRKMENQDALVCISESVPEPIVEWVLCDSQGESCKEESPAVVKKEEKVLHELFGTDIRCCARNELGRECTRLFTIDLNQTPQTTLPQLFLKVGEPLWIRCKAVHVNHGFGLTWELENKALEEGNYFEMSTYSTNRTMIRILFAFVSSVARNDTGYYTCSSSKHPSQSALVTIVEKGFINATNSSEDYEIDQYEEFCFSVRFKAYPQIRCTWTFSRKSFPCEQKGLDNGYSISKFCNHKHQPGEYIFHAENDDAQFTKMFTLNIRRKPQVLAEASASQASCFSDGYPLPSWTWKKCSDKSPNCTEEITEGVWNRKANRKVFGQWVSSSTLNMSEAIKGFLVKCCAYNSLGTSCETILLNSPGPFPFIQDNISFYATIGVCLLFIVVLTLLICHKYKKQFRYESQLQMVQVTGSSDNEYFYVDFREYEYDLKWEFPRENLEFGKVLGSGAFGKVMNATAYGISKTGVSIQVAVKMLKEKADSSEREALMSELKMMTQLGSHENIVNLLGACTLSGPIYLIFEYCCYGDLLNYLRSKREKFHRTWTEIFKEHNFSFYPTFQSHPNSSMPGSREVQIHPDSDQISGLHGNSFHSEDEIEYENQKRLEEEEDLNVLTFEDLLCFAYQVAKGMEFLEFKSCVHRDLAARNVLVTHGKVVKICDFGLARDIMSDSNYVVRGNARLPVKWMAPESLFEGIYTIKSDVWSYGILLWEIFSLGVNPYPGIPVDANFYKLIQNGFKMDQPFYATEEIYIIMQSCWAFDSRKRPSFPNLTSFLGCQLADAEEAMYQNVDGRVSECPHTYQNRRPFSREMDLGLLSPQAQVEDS
Dual specificity protein kinase CLK1, sequence (P49759 whole entry): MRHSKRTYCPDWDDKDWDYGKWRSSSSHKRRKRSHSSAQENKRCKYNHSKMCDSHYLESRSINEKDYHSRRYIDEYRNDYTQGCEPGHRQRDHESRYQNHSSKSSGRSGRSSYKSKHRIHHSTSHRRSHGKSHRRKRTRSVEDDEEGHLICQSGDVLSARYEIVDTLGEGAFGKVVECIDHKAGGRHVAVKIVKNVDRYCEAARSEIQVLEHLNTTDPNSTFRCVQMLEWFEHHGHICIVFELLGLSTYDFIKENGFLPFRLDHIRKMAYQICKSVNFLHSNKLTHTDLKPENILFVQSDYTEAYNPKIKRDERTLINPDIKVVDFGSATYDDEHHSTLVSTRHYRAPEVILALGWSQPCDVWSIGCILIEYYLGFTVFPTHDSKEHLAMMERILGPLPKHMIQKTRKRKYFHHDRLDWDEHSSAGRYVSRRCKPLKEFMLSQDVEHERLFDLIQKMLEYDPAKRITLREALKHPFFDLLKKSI
Hepatocyte growth factor receptor, sequence (P08581 whole entry): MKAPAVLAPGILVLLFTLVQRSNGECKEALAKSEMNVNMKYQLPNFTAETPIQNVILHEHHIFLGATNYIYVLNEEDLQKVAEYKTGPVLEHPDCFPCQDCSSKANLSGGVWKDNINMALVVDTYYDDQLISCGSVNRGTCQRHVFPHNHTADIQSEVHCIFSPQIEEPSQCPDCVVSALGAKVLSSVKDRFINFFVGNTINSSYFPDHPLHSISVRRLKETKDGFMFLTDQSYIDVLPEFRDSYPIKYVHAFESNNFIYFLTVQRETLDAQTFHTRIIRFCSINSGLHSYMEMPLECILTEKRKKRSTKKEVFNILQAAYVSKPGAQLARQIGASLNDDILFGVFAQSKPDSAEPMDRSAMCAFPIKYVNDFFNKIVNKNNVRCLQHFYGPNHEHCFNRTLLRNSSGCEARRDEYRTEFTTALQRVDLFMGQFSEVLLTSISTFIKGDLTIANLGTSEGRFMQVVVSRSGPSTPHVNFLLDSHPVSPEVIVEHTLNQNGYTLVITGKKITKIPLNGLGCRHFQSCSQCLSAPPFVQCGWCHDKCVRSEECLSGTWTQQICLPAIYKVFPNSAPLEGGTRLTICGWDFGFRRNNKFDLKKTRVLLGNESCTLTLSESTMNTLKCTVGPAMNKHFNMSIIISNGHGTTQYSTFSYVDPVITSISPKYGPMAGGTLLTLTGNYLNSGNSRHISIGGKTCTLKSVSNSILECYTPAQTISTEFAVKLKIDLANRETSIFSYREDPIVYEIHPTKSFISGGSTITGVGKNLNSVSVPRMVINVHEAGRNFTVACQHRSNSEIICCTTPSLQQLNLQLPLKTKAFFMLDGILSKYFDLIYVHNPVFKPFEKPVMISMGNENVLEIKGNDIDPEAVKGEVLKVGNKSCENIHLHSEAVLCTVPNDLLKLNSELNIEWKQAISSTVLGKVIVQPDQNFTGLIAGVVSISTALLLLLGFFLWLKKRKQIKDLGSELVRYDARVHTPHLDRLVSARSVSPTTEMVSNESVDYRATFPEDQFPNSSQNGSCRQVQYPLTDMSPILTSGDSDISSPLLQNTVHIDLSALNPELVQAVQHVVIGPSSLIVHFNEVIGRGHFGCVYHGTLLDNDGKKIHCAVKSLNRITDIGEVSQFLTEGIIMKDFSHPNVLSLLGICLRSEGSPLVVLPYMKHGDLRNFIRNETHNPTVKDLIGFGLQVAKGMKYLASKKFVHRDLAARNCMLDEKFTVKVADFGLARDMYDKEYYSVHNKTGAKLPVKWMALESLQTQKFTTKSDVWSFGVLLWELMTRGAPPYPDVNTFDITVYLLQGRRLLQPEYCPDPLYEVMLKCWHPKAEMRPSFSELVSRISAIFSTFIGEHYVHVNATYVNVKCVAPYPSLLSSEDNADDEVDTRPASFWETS
Proto-oncogene tyrosine-protein kinase receptor Ret, sequence (P07949 whole entry): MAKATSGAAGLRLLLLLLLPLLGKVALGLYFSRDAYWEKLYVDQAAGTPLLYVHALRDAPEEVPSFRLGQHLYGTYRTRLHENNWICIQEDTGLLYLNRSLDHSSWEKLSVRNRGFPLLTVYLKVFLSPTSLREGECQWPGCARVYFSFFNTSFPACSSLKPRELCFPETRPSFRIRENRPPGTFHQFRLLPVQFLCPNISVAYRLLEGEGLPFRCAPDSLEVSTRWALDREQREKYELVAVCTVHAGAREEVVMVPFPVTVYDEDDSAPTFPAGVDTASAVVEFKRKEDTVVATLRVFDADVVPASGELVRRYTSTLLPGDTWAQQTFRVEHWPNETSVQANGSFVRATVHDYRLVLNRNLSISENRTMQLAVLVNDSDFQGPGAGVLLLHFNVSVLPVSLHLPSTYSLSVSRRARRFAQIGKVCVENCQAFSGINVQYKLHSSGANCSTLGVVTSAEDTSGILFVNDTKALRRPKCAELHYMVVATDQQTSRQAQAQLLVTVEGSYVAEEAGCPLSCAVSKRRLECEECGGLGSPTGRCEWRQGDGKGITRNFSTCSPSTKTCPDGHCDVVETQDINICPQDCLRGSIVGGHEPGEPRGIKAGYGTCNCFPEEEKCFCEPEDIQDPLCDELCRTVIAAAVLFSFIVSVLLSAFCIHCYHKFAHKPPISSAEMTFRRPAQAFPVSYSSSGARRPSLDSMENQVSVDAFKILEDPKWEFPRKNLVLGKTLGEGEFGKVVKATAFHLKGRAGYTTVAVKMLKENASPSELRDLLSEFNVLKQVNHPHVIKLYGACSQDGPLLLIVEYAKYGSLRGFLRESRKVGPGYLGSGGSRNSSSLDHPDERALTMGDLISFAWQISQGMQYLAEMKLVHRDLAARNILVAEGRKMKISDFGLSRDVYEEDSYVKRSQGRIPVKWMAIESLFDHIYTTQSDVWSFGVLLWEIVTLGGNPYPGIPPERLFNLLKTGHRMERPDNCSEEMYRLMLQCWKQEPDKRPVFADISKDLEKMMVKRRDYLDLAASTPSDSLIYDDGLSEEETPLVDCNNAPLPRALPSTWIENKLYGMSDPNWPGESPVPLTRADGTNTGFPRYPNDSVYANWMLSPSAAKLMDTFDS

CC(C)n1cc(C(=O)Nc2ccc(Oc3ccnc(NC(=O)C4CC4)c3)c(F)c2)c(=O)n(-c2ccc(F)cc2)c1=O
inhibition [1]: Active | Cmax [2]: 2990 ng/mL | IC50 [3]: > 1000 nM | IC50 (MM1.S): > 10 µM | IC50 [4]: > 1000 nM | Activity (U-87 MG [5]): Dose-Dependent Effect | AUC(0-t) at 24 h [6]: 32600 ng·h/mL | clearance [7]: 2.29 mL/min/kg | IC50 [8]: > 1000 nM | IC50 (HCC827): > 10 µM | Activity [9]: Non-Toxic | Tmax [10]: 1.17 h | IC50 [11]: > 1000 nM | IC50 [12]: > 1000 nM | inhibition [13]: Dose-Dependent Effect | inhibition (NCI-H1299 [14]): Active | IC50 [15]: > 1000 nM | inhibition in vivo at 100 mg/kg (U-87 MG [16]): 99.1% | IC50 (MKN-45): 107 nM | Activity (NCI-H1299 [17]): inactive | Tmax [18]: 1.67 h | IC50 (CDK12/Cyclin K): > 1000 nM | Cmax [19]: 4560 ng/mL | inhibition (SNU-449): Active
